ChEMBL document CHEMBL5346921, “Discovery of novel benzamide derivatives bearing benzamidophenyl and phenylacetamidophenyl scaffolds as potential antitumor agents via targeting PARP-1” (Eur J Med Chem, 2023)
pIC50: −log10 of the molar value. Active and inactive are the calls of the source. The calls are words filed in the database; no cut-off is given here.

Experiments:
[1] = Cytotoxicity against human NCM460 cells assessed as reduction in cell viability incubated for 48 hrs by MTT assay; assay type: toxicity, cell-based
[2] = Selectivity index, ratio of IC50 for cytotoxicity against human NCM460 cells to IC50 for antiproliferative activity against human HCT-116 cells; assay type: toxicity, cell-based; details: NCM460 cells and HCT-116 cells, read-out: Ratio IC50
[3] = biological target: Poly [ADP-ribose] polymerase 1 (Homo sapiens, UniProt P09874); test: Inhibition of human PARP-1 by ELISA
Sequence of Poly [ADP-ribose] polymerase 1 (P09874 whole entry): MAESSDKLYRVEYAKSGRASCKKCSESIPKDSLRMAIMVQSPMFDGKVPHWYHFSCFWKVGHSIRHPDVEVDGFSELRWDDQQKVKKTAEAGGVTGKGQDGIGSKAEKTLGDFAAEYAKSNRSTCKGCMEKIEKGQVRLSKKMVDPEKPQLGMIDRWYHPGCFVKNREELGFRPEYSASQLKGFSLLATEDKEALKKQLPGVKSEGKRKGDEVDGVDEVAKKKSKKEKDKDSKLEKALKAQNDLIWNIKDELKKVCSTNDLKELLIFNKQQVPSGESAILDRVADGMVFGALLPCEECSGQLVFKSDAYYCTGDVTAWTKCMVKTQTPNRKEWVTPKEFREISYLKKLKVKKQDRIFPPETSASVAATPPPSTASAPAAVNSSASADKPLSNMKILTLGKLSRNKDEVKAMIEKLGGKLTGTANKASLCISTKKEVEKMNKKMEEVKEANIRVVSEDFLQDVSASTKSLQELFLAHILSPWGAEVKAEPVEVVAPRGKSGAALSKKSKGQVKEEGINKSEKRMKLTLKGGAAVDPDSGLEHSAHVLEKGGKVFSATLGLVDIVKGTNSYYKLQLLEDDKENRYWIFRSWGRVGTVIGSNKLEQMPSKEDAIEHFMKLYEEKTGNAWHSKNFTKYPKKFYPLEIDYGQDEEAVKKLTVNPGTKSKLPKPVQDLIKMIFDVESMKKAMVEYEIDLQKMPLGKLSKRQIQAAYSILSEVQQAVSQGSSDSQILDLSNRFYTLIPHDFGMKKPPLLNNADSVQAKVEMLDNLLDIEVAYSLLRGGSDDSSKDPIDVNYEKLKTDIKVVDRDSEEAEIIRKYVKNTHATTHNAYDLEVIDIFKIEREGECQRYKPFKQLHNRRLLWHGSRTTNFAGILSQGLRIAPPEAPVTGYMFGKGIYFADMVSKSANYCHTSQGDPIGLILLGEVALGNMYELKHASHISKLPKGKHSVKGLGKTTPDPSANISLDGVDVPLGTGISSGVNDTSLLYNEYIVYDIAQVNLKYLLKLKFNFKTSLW

HCT-116 [4] = test: Inhibition of cell migration in human HCT-116 cells at 0.3 uM incubated for 24 hrs by wound healing assay; assay type: functional
HCT-116 [5] = test: Inhibition of cell migration in human HCT-116 cells at 0.3 uM incubated for 48 hrs by wound healing assay; assay type: functional
HCT-116 [6] = test: Inhibition of cell migration in human HCT-116 cells at 3 uM incubated for 48 hrs by wound healing assay; assay type: functional
HCT-116 [7] = test: Induction of DNA double-strand breaks in human HCT-116 cells assessed as gammaH2AX accumulation incubated for 48 hrs by western blot analysis; assay type: functional, cell-based; details: dose 0.3-3 µM
HCT-116 [8] = test: Induction of DNA double strand breaks in human HCT-116 cells assessed as gammaH2AX accumulation at 3 uM incubated for 48 hrs by immunofluorescence analysis; assay type: functional, cell-based
HCT-116 [9] = test: Induction of cell cycle arrest in human HCT-116 cells assessed as accumulation of cells at S phase at 0.3 uM incubated for 48 hrs by PI staining based flow cytometry (reference value: 14.5%); assay type: functional
HCT-116 [10] = test: Induction of cell cycle arrest in human HCT-116 cells assessed as accumulation of cells at G2/M phase at 1.5 uM incubated for 48 hrs by PI staining based flow cytometry (reference value: 24.7%); assay type: functional
HCT-116 [11] = test: Induction of cell cycle arrest in human HCT-116 cells assessed as accumulation of cells at G0/G1 phase at 7.5 uM incubated for 48 hrs by PI staining based flow cytometry (reference value: 62.1%); assay type: functional
HCT-116 [12] = test: Induction of cell cycle arrest in human HCT-116 cells assessed as accumulation of cells at G0/G1 phase at 0.3 uM incubated for 72 hrs by PI staining based flow cytometry (reference value: 57.2%); assay type: functional
HCT-116 [13] = test: Induction of cell cycle arrest in human HCT-116 cells assessed as accumulation of cells at S phase at 0.3 uM incubated for 72 hrs by PI staining based flow cytometry (reference value: 16.7%); assay type: functional
HCT-116 [14] = test: Induction of cell cycle arrest in human HCT-116 cells assessed as accumulation of cells at G2/M phase at 0.3 uM incubated for 72 hrs by PI staining based flow cytometry (reference value: 25.4%); assay type: functional
HCT-116 [15] = test: Induction of cell cycle arrest in human HCT-116 cells assessed as accumulation of cells at G0/G1 phase at 1.5 uM incubated for 72 hrs by PI staining based flow cytometry (reference value: 57.2%); assay type: functional
HCT-116 [16] = test: Induction of cell cycle arrest in human HCT-116 cells assessed as accumulation of cells at S phase at 1.5 uM incubated for 72 hrs by PI staining based flow cytometry (reference value: 16.7%); assay type: functional
HCT-116 [17] = test: Induction of cell cycle arrest in human HCT-116 cells assessed as accumulation of cells at G0/G1 phase at 7.5 uM incubated for 72 hrs by PI staining based flow cytometry (reference value: 57.2%); assay type: functional
HCT-116 [18] = test: Induction of cell cycle arrest in human HCT-116 cells assessed as accumulation of cells at G2/M phase at 7.5 uM incubated for 72 hrs by PI staining based flow cytometry (reference value: 25.4%); assay type: functional
HCT-116 [19] = test: Induction of apoptosis in human HCT-116 cells assessed as early apoptotic cells at 0.3 uM incubated for 48 hrs by AnnexinV-FITC/PI staining based flow cytometry (reference value: 2.11%); assay type: functional
HCT-116 [20] = test: Induction of apoptosis in human HCT-116 cells assessed as viable cells at 1.5 uM incubated for 48 hrs by AnnexinV-FITC/PI staining based flow cytometry (reference value: 97.89%); assay type: functional; details: read-out: Activity
HCT-116 [21] = test: Induction of apoptosis in human HCT-116 cells assessed as necrotic cells at 1.5 uM incubated for 48 hrs by AnnexinV-FITC/PI staining based flow cytometry (reference value: 0%); assay type: functional
HCT-116 [22] = test: Induction of apoptosis in human HCT-116 cells assessed as viable cells at 7.5 uM incubated for 48 hrs by AnnexinV-FITC/PI staining based flow cytometry (reference value: 97.89%); assay type: functional; details: read-out: Activity
HCT-116 [23] = test: Induction of apoptosis in human HCT-116 cells assessed as necrotic cells at 7.5 uM incubated for 48 hrs by AnnexinV-FITC/PI staining based flow cytometry (reference value: 0%); assay type: functional
HCT-116 [24] = test: Induction of apoptosis in human HCT-116 cells assessed as viable cells at 0.3 uM incubated for 72 hrs by AnnexinV-FITC/PI staining based analysis (reference value: 98.95%); assay type: functional; details: read-out: Activity
HCT-116 [25] = test: Induction of apoptosis in human HCT-116 cells assessed as early apoptotic cells at 0.3 uM incubated for 72 hrs by AnnexinV-FITC/PI staining based analysis (reference value: 1.05%); assay type: functional
HCT-116 [26] = test: Induction of apoptosis in human HCT-116 cells assessed as late apoptotic cells at 0.3 uM incubated for 72 hrs by AnnexinV-FITC/PI staining based analysis (reference value: 0%); assay type: functional
HCT-116 [27] = test: Induction of apoptosis in human HCT-116 cells assessed as viable cells at 1.5 uM incubated for 72 hrs by AnnexinV-FITC/PI staining based analysis (reference value: 98.95%); assay type: functional; details: read-out: Activity
HCT-116 [28] = test: Induction of apoptosis in human HCT-116 cells assessed as necrotic cells at 7.5 uM incubated for 72 hrs by AnnexinV-FITC/PI staining based analysis (reference value: 0%); assay type: functional
HCT-116 [29] = test: Induction of mitochondrial membrane potential loss in human HCT-116 cells assessed as JC-1 aggregate level by measuring red fluorescence intensity at 1 uM incubated for 48 hrs by JC-1 staining based flow cytometry (reference value: 96.72%); assay type: functional
HCT-116 [30] = test: Induction of mitochondrial membrane potential loss in human HCT-116 cells assessed as JC-1 aggregate level by measuring red fluorescence intensity at 3 uM incubated for 48 hrs by JC-1 staining based flow cytometry (reference value: 96.72%); assay type: functional
HCT-116 [31] = test: Induction of mitochondrial membrane potential loss in human HCT-116 cells assessed as JC-1 monomer level by measuring green fluorescence intensity at 0.3 uM incubated for 48 hrs by JC-1 staining based flow cytometry (reference value: 3.28%); assay type: functional
HCT-116 [32] = test: Induction of mitochondrial membrane potential loss in human HCT-116 cells assessed as JC-1 monomer level by measuring green fluorescence intensity at 1 uM incubated for 48 hrs by JC-1 staining based flow cytometry (reference value: 3.28%); assay type: functional
HCT-116 [33] = test: Induction of apoptosis in human HCT-116 cells assessed as increase in cleaved PARP protein expression incubated for 48 hrs by western blot analysis; assay type: functional, cell-based; details: dose 0.3-3 µM
HCT-116 [34] = test: Induction of apoptosis in human HCT-116 cells assessed as decrease in Bcl-2 protein expression incubated for 48 hrs by western blot analysis; assay type: functional, cell-based; details: dose 0.3-3 µM
SW480 = test: cells; details: Homo sapiens, SW480, 48 h
Description: Antiproliferative activity against human SW480 cells assessed as reduction in cell viability incubated for 48 hrs by MTT assay

Question: With NC(=O)c1ccccc1OCc1cccc(NC(=O)c2ccc(Br)cc2)c1 as the compound, how does the IC50 at 48 h [1] read?
Answer: 487 µM

Question: What about the selectivity ratio [2] of the same compound?
Answer: 1640

Question: What about the pIC50 [3] of the same compound?
Answer: 9.60

Question: And the inhibition at 0.3 µM (HCT-116 [4])?
Answer: 12.4%

Question: What about the inhibition at 0.3 µM (HCT-116 [5]) of the same compound?
Answer: 30.5%

Question: And the inhibition at 3 µM (HCT-116 [6])?
Answer: 43.2%

Question: What about the Activity (HCT-116 [7]) of the same compound?
Answer: Dose-Dependent Effect

Question: What about the Activity (HCT-116 [8]) of the same compound?
Answer: Active

Question: What about the Activity (HCT-116 [9]) of the same compound?
Answer: 11%

Question: And the Activity (HCT-116 [10])?
Answer: 33%

Question: And the Activity (HCT-116 [11])?
Answer: 49.7%

Question: What about the Activity (HCT-116 [12]) of the same compound?
Answer: 46.9%

Question: And the Activity (HCT-116 [13])?
Answer: 22.4%

Question: And the Activity (HCT-116 [14])?
Answer: 29.6%

Question: And the Activity (HCT-116 [15])?
Answer: 45.1%

Question: What about the Activity (HCT-116 [16]) of the same compound?
Answer: 15.6%

Question: And the Activity (HCT-116 [17])?
Answer: 34.4%

Question: And the Activity (HCT-116 [18])?
Answer: 45.5%

Question: And the Activity (HCT-116 [19])?
Answer: 9.12%

Question: And the viability at 1.5 µM (HCT-116 [20])?
Answer: 73%

Question: What about the Activity (HCT-116 [21]) of the same compound?
Answer: 1.38%

Question: And the viability at 7.5 µM (HCT-116 [22])?
Answer: 57.4%

Question: And the Activity (HCT-116 [23])?
Answer: 0.51%

Question: What about the viability at 0.3 µM (HCT-116 [24]) of the same compound?
Answer: 76.3%

Question: And the Activity (HCT-116 [25])?
Answer: 23.69%

Question: What about the Activity (HCT-116 [26]) of the same compound?
Answer: 0%

Question: And the viability at 1.5 µM (HCT-116 [27])?
Answer: 69.3%

Question: And the Activity (HCT-116 [28])?
Answer: 0.01%

Question: And the Activity (HCT-116 [29])?
Answer: 85.84%

Question: What about the Activity (HCT-116 [30]) of the same compound?
Answer: 49.97%

Question: And the Activity (HCT-116 [31])?
Answer: 9.38%

Question: And the Activity (HCT-116 [32])?
Answer: 14.16%

Question: And the Activity (HCT-116 [33])?
Answer: Dose-Dependent Effect

Question: What about the Activity (HCT-116 [34]) of the same compound?
Answer: Dose-Dependent Effect

Question: What about the pIC50 (SW480) of the same compound?
Answer: 4.47
